Data published in patent publication US8580775B2, “Use of derivatives of sinapinic acid and compositions comprising such derivatives” (Cognis IP Management GmbH, priority 2007, dated 2013).

Tested on: Melanocytes (B16 cell line)
Experiment: Melanogenesis Inhibition Assay
Format: cell-based
Settings: for Protein level (rate of cellular proteins) / Melanin level: B16 melanocytes, 3 days incubation, mean +/− SEM; for Protein level (rate of cellular proteins): Bradford's method; for Melanin level: optical density at 475 nm
Experimental: Melanocytes (B16 cell line) were inoculated in standard medium of cell culture with foetal calf serum (FCS). After an incubation of 3 days at 37° C. under 5% CO2, growth medium was exchanged for standard medium with a range of concentrations for each compound to be tested and a control without ingredient. After an incubation of 3 days, the level of melanin was measured by recording the optical density at 475 nm. After washing the cells with a balanced salt buffer, and homogenisation in a solution of 0.1 M NaOH, the number of viable cells was determined by evaluation of the level of cellular proteins (Bradford's method).
The results are expressed in % against control (cell culture medium without compound) as a mean+/−SEM (Standard Error of Mean) on 2 or 3 assays, each in triplicate.

For `COc1cc(/C=C/C(=O)O)cc(OC)c1OC(C)=O` [example 1, 3,5-dimethoxy-4-acetoxy-cinnamic acid], the “Protein level (rate of cellular proteins)” value (“Protein level” below) (dose 0.0003 % (w/v)) was 100 +/− 1 %/control, the Melanin level (dose 0.0003 % (w/v)) was 86 +/− 2 %/control and the “Protein level” value (dose 0.001 % (w/v)) was 95 +/− 1 %/control. For the same molecule, the Melanin level (dose 0.001 % (w/v)) was 67 +/− 2 %/control, the “Protein level” value (dose 0.003 % (w/v)) was 93 +/− 3 %/control and the Melanin level (dose 0.003 % (w/v)) was 26 +/− 1 %/control. For the same molecule, the “Protein level” value (dose 0.01 % (w/v)) was 81 +/− 10 %/control, the Melanin level (dose 0.01 % (w/v)) was 19 +/− 2 %/control and the cell toxicity (summary in words of Table 3) was “without cell toxicity”. For the same molecule, the “rate of melanin synthesis in melanocytes” value (summary in words of Table 3) was “decreased”.
In the case of `CCOC(=O)/C(=C/c1cc(OC)c(O)c(OC)c1)C(C)=O` [example 2], the “Protein level” value (dose 0.001 % (w/v)) is reported as 110 +/− 10 %/control, the Melanin level (dose 0.001 % (w/v)) is reported as 108 +/− 3 %/control and the “Protein level” value (dose 0.003 % (w/v)) is reported as 123 +/− 9 %/control. For the same molecule, the Melanin level (dose 0.003 % (w/v)) was 54 +/− 6 %/control and the cell toxicity (summary in words of Table 3) was “without cell toxicity”.
